The values below come from patent US6514911B1, “Substituted oxadiazines useful as pesticides” (Uniroyal Chemical Company, Inc., priority 2002, dated 2003).

In assay [1] the test system is velvetleaf (Abutilon theophrasti Medik.) (VL). The assay can be described thus: Preemergence herbicide test, soil drench, velvetleaf. It is filed as in vivo. The settings on record: 10 lbs/A (11.2 kg/ha) soil drench, two weeks after treatment, vs untreated checks. The method in brief:
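Compound in acetone/ethoxylated sorbitan monolaurate, diluted to 250 ppm in water, was drenched onto the soil surface of pots sown with velvetleaf at 10 lb/acre (11.2 kg/ha). Percent control versus untreated checks was rated two weeks after treatment.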

Assay [2] concerns switchgrass (Panicum virgahim L.) (SG). The assay can be described thus: Preemergence herbicide test, soil drench, switchgrass. It is filed as in vivo. The conditions noted are these: 10 lbs/A (11.2 kg/ha) soil drench, two weeks after treatment, vs untreated checks. The method in brief:
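Preemergence soil drench at 10 pounds/acre (11.2 kg/ha), 46 mL of 250 ppm aqueous solution (acetone, ethoxylated sorbitan monolaurate) applied to pots sown with switchgrass seed. Percent weed control versus untreated checks scored two weeks after treatment.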

In a further assay the test system is insects. Put plainly: Insecticidal properties (no method given). The conditions noted are these: statement in words, no test details.
In assay [3] the test system is barnyardgrass (Echinochloa crus-galli (L.) Beauv.) (BG). Put plainly: Preemergence herbicide test, soil drench, barnyardgrass. It is filed as in vivo. The settings on record: 10 lbs/A (11.2 kg/ha) soil drench, two weeks after treatment, vs untreated checks. The method in brief:
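Compound formulated in acetone with ethoxylated sorbitan monolaurate, diluted to 250 ppm and drenched onto soil surface of seeded pots at 10 pounds/acre (11.2 kg/ha), preemergence. Percent weed control versus untreated checks scored two weeks after treatment.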

For assay [4], the system named is tall morningglory (Ipomoea purpurea (L.) Roth) (TM). Put plainly: Preemergence herbicide test, soil drench, tall morningglory. It counts as in vivo. The conditions noted are these: 10 lbs/A (11.2 kg/ha) soil drench, two weeks after treatment, vs untreated checks. In outline:
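Acetone/emulsifier formulation diluted to 250 ppm and drenched onto soil surface of seeded pots at 10 lb/acre (11.2 kg/ha), preemergence. Percent weed control versus untreated checks scored two weeks after treatment.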

For assay [5], the system named is green foxtail (Setaria virdis (L.) Beauv.) (GF). The assay can be described thus: Preemergence herbicide test, soil drench, green foxtail. It counts as in vivo. The settings on record: 10 lbs/A (11.2 kg/ha) soil drench, two weeks after treatment, vs untreated checks. In outline: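 Compound in acetone/water with ethoxylated sorbitan monolaurate emulsifier, applied as 250 ppm soil drench at 10 lb/acre (11.2 kg/ha) to pots sown with green foxtail seed. Percent weed control versus untreated checks rated two weeks after treatment.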

Assay [6] concerns jimsonweed (Datura stramonium L.) (JW). The assay can be described thus: Preemergence herbicide test, soil drench, jimsonweed. It is filed as in vivo. The settings on record: 10 lbs/A (11.2 kg/ha) soil drench, two weeks after treatment, vs untreated checks. Here is the method:
To illustrate the effectiveness of the previously described substituted oxadiazines of this invention as preemergence herbicides, 300 mg of the chemical was dissolved in a composition comprising 10 mL acetone to which 30 mg of tile emulsifying agent, ethoxylated sorbitan monolaurate, was added. The solution was diluted to 100 mL with distilled water. Ten milliliters of this 3000 ppm solution was diluted to 250 ppm with distilled water. The chemical was applied at the rate of 10 pounds/acre (11.2 kg/ha) by drenchings 46 mL of the 250 ppm solution on the surface of soil in 4½ inch (11.25 cm) plastic pots wherein seeds of the following weeds had been planted: jimsonweed (Datura stramonium L.) (JW), The percent control of the weeds compared to untreated checks was determined two weeks after treatment. TABLE 1 summarizes the results achieved with compounds formulated as indicated above, and the data clearly indicate the good to excellent herbicidal efficacy of compositions of this invention.

Turning to `FC(F)(F)Oc1ccc(C2=NC(C(F)(F)F)(C(F)(F)F)N=C(C(F)(F)C(F)(F)F)O2)cc1` [Compound 16, 2-(pentafluoroethyl)-6-{(4-trifluoromethoxy)phenyl}-4,4-bis(trifluoromethyl)-4H-1,3,5-oxadiazine], the “Percent Weed Control VL” value in assay [1] came out at 100%. The “Percent Weed Control SG” value in assay [2] worked out at 100%. Moreover, the insecticidal properties result in the assay on insects is on record as “found to have insecticidal properties”. Further, the “Percent Weed Control BG” value in assay [3] is given as 100%. Moreover, the “Percent Weed Control TM” value in assay [4] is reported as 100%. The “Percent Weed Control GF” value in assay [5] is 100%. The “Percent Weed Control JW” value in assay [6] is 100%.
As to `FC(F)(F)C(F)(F)C(F)(F)C1=NC(C(F)(F)F)(C(F)(F)F)N=C(c2cccc(Cl)c2)O1` [Compound 26, 2-(3-chlorophenyl)-6-(heptafluoropropyl)-4,4-bis(trifluoromethyl)-4H-1,3,5-oxadiazine], the pest or weed control at 11208.5 g/ha is 100% in assay [1] (Abutilon theophrasti, 336 h, read-out: Percent Weed Control VL); 100% in assay [2] (Panicum, 336 h, read-out: Percent Weed Control SG); 100% in assay [3] (Echinochloa crus-galli, 336 h, read-out: Percent Weed Control BG); 100% in assay [4] (Ipomoea, 336 h, read-out: Percent Weed Control TM); 100% in assay [5] (Setaria, 336 h, read-out: Percent Weed Control GF). For the same compound, the insecticidal properties result in the assay with insects is recorded as “found to have insecticidal properties”. Also, in assay [6], the “Percent Weed Control JW” value amounted to 100%.
